In patent US20120225135A1 (priority 2010, published 2012):
“And” between values parts separate entries of the source, which are not always exact repeats. Identical values can stand only once. Like-named read-outs stand apart in the source and are kept apart here.

Legend:
[1] = tested on: Fecal Coli; assay: Disinfection of effluents, fecal coli; type: cell-based; details: for Fecal Coli: ClO2 dose 9.86 mg/L, 30 minutes; for Fecal Coli EC Media per 100 mL: trickling filters effluents
[2] = tested on: Cryptosporidium parvum oocysts; details: in vivo
[3] = tested on: Escherichia coli, ATCC 11229; type: cell-based; details: pH 5
[4] = tested on: Poliovirus type 1, ATCC VR-59; type: cell-based; details: pH 9
[5] = tested on: Enterobacter Cloacae; assay: Microbiological effectiveness at cold temperatures; type: cell-based
[6] = type: physicochemical; details: for Found ppm: test level 0.13 ppm ClO2, taken 0.130 ppm
[7] = tested on: Pichia (Hansenula) anomala (20 percent sporulated); assay: Microbiological effectiveness at cold temperatures; type: cell-based
[8] = tested on: Legionella pneumophila, ATCC 33153; type: cell-based; details: pH 5
[9] = tested on: Pediococcus damnosus; assay: Microbiological effectiveness at cold temperatures; type: cell-based
[10] = tested on: E. coli; assay: Sanitation of fishing holds, E. coli; details: cleaned surface sprayed with 10 ppm ClO2 solution
Description: Gross filth removed and washed in detergent
Cleaned surface sprayed with 10 ppm ClO2 solution

[11] = tested on: biofilm; details: cited from earlier work
[12] = tested on: Lactobacillus frigidus; assay: Microbiological effectiveness at cold temperatures; type: cell-based
[13] = tested on: Streptococcus; assay: Disinfection of effluents, streptococcus; type: cell-based; details: trickling filters effluents
[14] = tested on: E. coli
[15] = ClO2 dose 2.7 mg/L, contact time 5 min
[16] = ClO2 dose 2.7 mg/L, contact time 20 min
[17] = ClO2 dose 10.8 mg/L, contact time 5 min
[18] = ClO2 dose 10.8 mg/L, contact time 20 min

Structure (SMILES): [O][Cl+][O-] [Chlorine Dioxide, chlorine dioxide]
- Fecal Coli ([1]; effluents, pH initial 4.6, final 4.4): 2 MPN per 100 ml
- Fecal Coli ([1]; effluents, pH initial 5.5, final 5.6): 2 MPN per 100 ml
- Fecal Coli ([1]; effluents, pH initial 6.5, final 6.7): 0 MPN per 100 ml
- Fecal Coli ([1]; effluents, pH initial 7.5, final 7.6): 1.8 MPN per 100 ml
- Fecal Coli ([1]; effluents, pH initial 8.2, final 8.1): 23 MPN per 100 ml
- Fecal Coli ([1]; effluents, pH initial 9.1, final 9.2): 2.7 × 10^2 MPN per 100 ml
- Fecal Coli ([1]; effluents, pH initial 10.0, final 10.0): 1.3 × 10^4 MPN per 100 ml
- kill of fecal coli ([1]; effluents, dose 2.7 mg/L ClO2, 30 min. contact time): 98.9%
- fecal coli organisms survived ([1]; effluents, dose 10.8 mg/L ClO2, 30 min. contact time): two
- Fecal Coli EC Media per 100 mL [1, 15]: 2.4 × 10^7 per 100 mL
- Fecal Coli EC Media per 100 mL [1, 16]: 1.3 × 10^7 per 100 mL
- Fecal Coli EC Media per 100 mL ([1]; ClO2 dose 2.7 mg/L, contact time 35 min): 3.5 × 10^5 per 100 mL
- Fecal Coli EC Media per 100 mL ([1]; ClO2 dose 5.0 mg/L, contact time 15 min): 2.4 × 10^6 per 100 mL
- Fecal Coli EC Media per 100 mL [1, 17]: 9.2 × 10^2 per 100 mL
- Fecal Coli EC Media per 100 mL [1, 18]: 14 per 100 mL
- Fecal Coli EC Media per 100 mL ([1]; ClO2 dose 10.8 mg/L, contact time 35 min): 2 per 100 mL
- reduction of infectivity for mice [2]: > 3 log 10
- reduction in titer [3]: > 6 log 10
- reduction in titer [4]: > 4 log 10
- Deactivation (%) [5]: 99.999%
- Mean ([6]; Day 1, n 6): 0.126 ppm
- Found ppm ([6]; Day 1): 0.128 ppm and 0.126 ppm and 0.115 ppm and 0.127 ppm and 0.133 ppm
- Mean ([6]; Day 5, n 6): 0.122 ppm
- Found ppm ([6]; Day 5): 0.125 ppm and 0.122 ppm and 0.117 ppm and 0.123 ppm and 0.118 ppm
- Mean ([6]; Day 15, n 5): 0.129 ppm
- Found ppm ([6]; Day 15): 0.133 ppm and 0.129 ppm and 0.127 ppm and 0.125 ppm and 0.131 ppm and 0.157* ppm
- Mean ([6]; Day 30, n 5): 0.128 ppm
- Found ppm ([6]; Day 30): 0.126 ppm and 0.130 ppm and 0.128 ppm and 0.125 ppm and 0.161* ppm
- Mean ([6]; Day 48, n 5): 0.129 ppm
- Found ppm ([6]; Day 48): 0.131 ppm and 0.127 ppm and 0.128 ppm and 0.164* ppm
- Mean ([6]; Day 96, n 4): 0.133 ppm
- Found ppm ([6]; Day 96): 0.137 ppm and 0.132 ppm and 0.128 ppm and 0.133 ppm and 0.161* ppm
- Deactivation (%) [7]: 99.999%
- reduction in titer [8]: > 6 log 10
- Deactivation (%) [9]: 99.999%
- E. coli [10]: below level of detection
- detachment of biofilms [11]: very effective
- Deactivation (%) [12]: 99.999%
- Streptococcus per 100 mL [13, 15]: 8.4 × 10^7 per 100 mL
- Streptococcus per 100 mL [13, 16]: 2.4 × 10^7 per 100 mL
- Streptococcus per 100 mL [13, 17]: 2.7 × 10^5 per 100 mL
- Streptococcus per 100 mL [13, 18]: 8.0 × 10^3 per 100 mL
- E. coli on cut lettuce [14]: always zero
